From ChEMBL document CHEMBL4219172, “Synthesis and biological evaluation of pyrimidine derivatives as novel human Pin1 inhibitors” (Bioorg Med Chem, 2018) come the findings set out here.

Molecules are shown by their SMILES.

In assay [1] the target is T1, Peptidyl-prolyl cis-trans isomerase NIMA-interacting 1 (Homo sapiens, UniProt Q13526). Nature of the assay: Inhibition of human N-terminal His6-tagged Pin1 PPIase activity expressed in Escherichia coli BL21 using Suc-Ala-Glu-cis-Pro-Phe-4-nitroanilide as substrate preincubated for 10 mins followed by substrate addition monitored for 90 secs by protease enzyme coupled based spectrophotometric analysis.
T1 sequence (Q13526 whole entry): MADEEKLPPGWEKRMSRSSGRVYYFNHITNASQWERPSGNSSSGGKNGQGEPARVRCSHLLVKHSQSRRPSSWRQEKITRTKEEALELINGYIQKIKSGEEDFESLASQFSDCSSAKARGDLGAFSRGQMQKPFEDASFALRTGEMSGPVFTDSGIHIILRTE

The target of assay [2] is T1, Peptidyl-prolyl cis-trans isomerase NIMA-interacting 1. As to the kind of experiment: Inhibition of human N-terminal His6-tagged Pin1 PPIase activity expressed in Escherichia coli BL21 using Suc-Ala-Glu-cis-Pro-Phe-4-nitroanilide as substrate by beckman coulter-paradigm assay. The conditions noted are these: TDE = time-dependent effect.

Compound `O=[N+]([O-])c1cnc(OCCc2ccccc2)nc1Cl` displayed an IC50 in assay [1] of 7.27 µM.

The compound `O=C1C=CC(=O)N1c1cnc(Cl)nc1Nc1ccccc1` came in with an IC50 in assay [1] of 20.2 µM.

`N#Cc1cnc(Cl)nc1Oc1ccccc1` yielded an IC50 in assay [1] of 4.36 µM.

Compound `O=C1CCC(=O)N1c1cnc(Cl)nc1Nc1ccccc1` yielded a half-maximal inhibitory concentration (IC50) in assay [1] greater than 100 µM.

Consider `O=[N+]([O-])c1cnc(Cl)nc1Oc1cccc2ocnc12`, for which the inhibition entry in assay [2] is “Tde”. Moreover, half-maximal inhibition in assay [1] (IC50) was put at 1.68 µM.

`CC1=C(/C=C/C(C)=C/C=C/C(C)=C/C(=O)O)C(C)(C)CCC1` [TRETINOIN] returned an IC50 in assay [1] of 0.82 µM.

As for `O=[N+]([O-])c1cnc(Cl)nc1Oc1cccc2ccccc12`, in assay [1], it took 22.6 µM to reach half-maximal inhibition (IC50).

Consider `CNc1nc(Cl)ncc1[N+](=O)[O-]`, for which the IC50 in assay [1] is greater than 100 µM.

As to `O=[N+]([O-])c1cnc(Cl)nc1NC1CCCCC1`, the half-maximal inhibitory concentration (IC50) in assay [1] is greater than 100 µM.

`O=[N+]([O-])c1cnc(Cl)nc1OC1CCCCC1` yielded a concentration for half-maximal inhibition (IC50) in assay [1] greater than 100 µM.

Regarding `Clc1ncc(-c2ncco2)c(Nc2ccccc2)n1`, in assay [1], the midpoint of inhibition, the IC50, lay at 9.87 µM.

Compound `O=[N+]([O-])c1cnc(Cl)nc1Oc1ccc(-c2ccccc2)cc1` showed an IC50 in assay [1] of 34 µM.

In assay [1], `N#Cc1ccccc1Oc1nc(Cl)ncc1[N+](=O)[O-]` registered a half-inhibitory concentration (IC50) of 9.05 µM.

With `O=[N+]([O-])c1ccc(Cl)nc1Oc1cccc2ocnc12`, the IC50 in assay [1] was greater than 100 µM.

In assay [1], `O=[N+]([O-])c1cnc(Cl)nc1Nc1ccccc1` returned a 50% inhibitory concentration (IC50) of 6.66 µM.

`Cc1cnc(Cl)nc1Oc1cccc2ocnc12`: in assay [1], the IC50 was greater than 100 µM.

For the compound `CS(=O)(=O)Nc1ccccc1Oc1nc(Cl)ncc1[N+](=O)[O-]`, in assay [1], the IC50 is 5.2 µM.

In assay [1], `O=[N+]([O-])c1cnc(-c2ccccc2)nc1Oc1cccc2ocnc12` showed an IC50 greater than 100 µM.

As to `O=[N+]([O-])c1cnc(CCc2ccccc2)nc1Cl`, the 50% inhibitory concentration (IC50) in assay [1] was found to be 13.9 µM.

`Cc1cnc(Cl)nc1Oc1ccccc1` showed an IC50 in assay [1] greater than 100 µM.

For `Clc1ncc(-c2nnco2)c(Nc2ccccc2)n1`, in assay [1], the IC50 is greater than 100 µM.

As for `O=[N+]([O-])c1cnc(OCc2ccccc2)nc1Cl`, the inhibition result in assay [2] is “Tde”. The compound further displayed an IC50 in assay [1] of 7.28 µM.

As for `O=[N+]([O-])c1cnc(Cl)nc1Oc1ccccn1`, 3.48 µM corresponded to half-maximal inhibition in assay [1] (IC50).

The compound `O=[N+]([O-])c1cnc(Cl)nc1NCCc1ccccc1` returned a 50% inhibitory concentration (IC50) in assay [1] greater than 100 µM.

`O=[N+]([O-])c1cnc(-c2ccc3ccccc3c2)nc1Oc1cccc2ocnc12` returned a 50% inhibitory concentration (IC50) in assay [1] greater than 100 µM.

Compound `Nc1ccccc1Oc1nc(Cl)ncc1[N+](=O)[O-]` registered a 50% inhibitory concentration (IC50) in assay [1] of 33.5 µM.

In turn, `O=[N+]([O-])c1cnc(Cl)nc1OC1CCCC1` came in with an IC50 in assay [1] greater than 100 µM.

`O=[N+]([O-])c1cnc(Cl)nc1OCc1ccccc1`: the inhibition result in assay [2] was “Tde”. Besides, the IC50 in assay [1] came out at 8.33 µM.

Compound `O=[N+]([O-])c1cnc(Cl)nc1Oc1ccccc1F` yielded a half-inhibitory concentration (IC50) in assay [1] of 2.52 µM.

In turn, `Clc1ncc(Cl)c(Oc2ccccc2)n1` yielded an IC50 in assay [1] greater than 100 µM.

Turning to `O=[N+]([O-])c1cnc(Cl)nc1Oc1ccc2ccccc2c1`, the half-inhibitory concentration (IC50) in assay [1] was 16.6 µM.

As for `O=[N+]([O-])c1cnc(Cl)cc1Oc1cccc2ocnc12`, in assay [1], the concentration for half-maximal inhibition (IC50) is greater than 100 µM.

Take `O=[N+]([O-])c1cncnc1Oc1cccc2ocnc12`: in assay [1], the IC50 was greater than 100 µM.

The compound `COc1cccc(Oc2nc(Cl)ncc2[N+](=O)[O-])c1` returned an IC50 in assay [1] of 5.04 µM. This counts as single-digit micromolar.

Compound `COC(=O)c1cnc(Cl)nc1Oc1cccc2ocnc12` showed a 50% inhibitory concentration (IC50) in assay [1] greater than 100 µM.

In turn, `Cn1nc(-c2ccccc2)cc1Oc1nc(Cl)ncc1[N+](=O)[O-]` showed an IC50 in assay [1] of 2.17 µM.

`O=[N+]([O-])c1cnc(Cl)nc1OCCc1ccccc1` returned an IC50 in assay [1] of 4.08 µM. Compared with the last compound, the IC50 is about 1.9-fold higher.

With `FC(F)(F)c1cnc(Cl)nc1Oc1cccc2ocnc12`, the IC50 in assay [1] was greater than 100 µM.

Turning to `O=C1C=CC(=O)c2c(O)cccc21` [JUGLONE], in assay [1], the 50% inhibitory concentration (IC50) was 5.9 µM.

With `O=C(O)c1cnc(Cl)nc1Oc1cccc2ocnc12`, in assay [1], the half-inhibitory concentration (IC50) was 18.9 µM. Compared with the last compound, the IC50 is about 3.2-fold higher.

`FC(F)(F)c1cnc(Cl)nc1Oc1ccccc1`: in assay [1], the half-maximal inhibitory concentration (IC50) was greater than 100 µM.

Regarding `O=[N+]([O-])c1cnc(Cl)nc1NC1CCCC1`, the IC50 in assay [1] was greater than 100 µM.

On to `O=[N+]([O-])c1cnc(Cl)nc1Oc1ccccc1`, for which the inhibition result in assay [2] is “Tde”. This compound also returned an IC50 in assay [1] of 2.24 µM.

On to `COc1ccccc1Oc1nc(Cl)ncc1[N+](=O)[O-]`, for which the midpoint of inhibition in assay [1], the IC50, lay at 4.03 µM.
